# Laboratory results taken from US20240327382A1 (ALMAC DISCOVERY LIMITED, priority 2021, published 2024).
# Biological target: T1, Full-length USP19 (Homo sapiens, UniProt O94966)
# T1 construct: Full-length USP19 was purchased from Boston Biochem (E-576); purchased Boston Biochem E-576
# T1 sequence (O94966 1-1318): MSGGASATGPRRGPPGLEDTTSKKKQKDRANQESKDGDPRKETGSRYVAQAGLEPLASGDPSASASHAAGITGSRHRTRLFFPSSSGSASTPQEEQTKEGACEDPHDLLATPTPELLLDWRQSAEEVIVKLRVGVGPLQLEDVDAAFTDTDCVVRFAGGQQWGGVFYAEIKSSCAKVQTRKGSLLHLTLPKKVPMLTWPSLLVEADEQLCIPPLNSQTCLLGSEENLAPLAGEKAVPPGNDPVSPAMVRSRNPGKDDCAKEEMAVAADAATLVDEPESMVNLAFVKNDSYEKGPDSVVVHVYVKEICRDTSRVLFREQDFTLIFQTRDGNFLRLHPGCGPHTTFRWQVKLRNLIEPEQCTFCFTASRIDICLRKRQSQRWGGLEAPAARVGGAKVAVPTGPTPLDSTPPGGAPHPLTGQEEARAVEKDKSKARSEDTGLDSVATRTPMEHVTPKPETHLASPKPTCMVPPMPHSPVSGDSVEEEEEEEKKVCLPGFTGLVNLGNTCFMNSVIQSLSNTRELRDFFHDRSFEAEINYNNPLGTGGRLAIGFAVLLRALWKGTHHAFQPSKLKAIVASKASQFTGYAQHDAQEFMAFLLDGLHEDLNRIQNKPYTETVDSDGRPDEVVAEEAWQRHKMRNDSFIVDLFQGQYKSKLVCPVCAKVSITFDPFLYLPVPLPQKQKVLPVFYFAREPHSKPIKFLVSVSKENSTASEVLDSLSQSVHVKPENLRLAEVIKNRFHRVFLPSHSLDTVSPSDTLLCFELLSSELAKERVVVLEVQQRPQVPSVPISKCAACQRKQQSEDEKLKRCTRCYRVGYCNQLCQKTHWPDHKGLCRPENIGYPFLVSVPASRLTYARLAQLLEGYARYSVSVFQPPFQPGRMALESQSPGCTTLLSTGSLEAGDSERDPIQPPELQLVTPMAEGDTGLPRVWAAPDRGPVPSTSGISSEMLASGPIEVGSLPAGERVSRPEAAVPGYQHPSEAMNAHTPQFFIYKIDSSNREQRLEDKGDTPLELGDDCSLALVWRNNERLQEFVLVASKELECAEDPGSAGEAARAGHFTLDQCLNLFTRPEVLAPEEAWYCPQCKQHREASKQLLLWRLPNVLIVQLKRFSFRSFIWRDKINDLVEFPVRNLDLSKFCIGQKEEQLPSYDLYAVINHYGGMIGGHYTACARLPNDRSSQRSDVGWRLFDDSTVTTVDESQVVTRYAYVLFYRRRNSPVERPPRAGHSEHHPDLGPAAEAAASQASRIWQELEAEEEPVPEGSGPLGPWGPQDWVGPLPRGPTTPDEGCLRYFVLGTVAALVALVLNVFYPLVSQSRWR
# Assay: USP19 fluorescence polarisation (FP) assay, Ubiquitin-Lys-TAMRA substrate
# Assay type: biochemical
# Conditions: average of at least two duplicate experiments
# Procedure: USP19 activity was determined in a fluorescence polarisation (FP) homogeneous assay using the isopeptide Ubiquitin-Lys-TAMRA substrate (either AUB-101, Almac Sciences Scotland Limited, or U-558, Boston Biochem, both of which gave identical results). Full-length USP19 was purchased from Boston Biochem (E-576). Unless otherwise stated, all other reagents were purchased from Sigma. Enzymatic reactions were conducted in black flat bottom polystyrene 384-well plates (Nunc) and 30 μL total volume. USP19 (2.5 nM, 10 μL) was incubated in assay buffer (50 mM HEPES (pH 7.4), 150 mM NaCl, 5 mM DTT, 0.05% BSA (w/v), 0.05% CHAPS) in the presence or absence of inhibitor (10 μL). Inhibitors were stored as 10 mM DMSO stocks in an inert environment (low humidity, dark, low oxygen, rt) using the StoragePod® system (Roylan Developments) and serial dilutions were prepared in buffer just prior to the assay (from 200 μM to 2 μM, 8-18 data point curve). Following incubation at RT for 30 min, the enzymatic reactions were initiated by dispensing the Ub substrate (500 nM, 10 μL). FP was measured every 15 min over a period of 90 min (within the linear range of the assay) using a Synergy 4 plate reader (BioTek) exciting at 530 nm and measuring the amount of parallel and perpendicular light at 575 nm. The FP signal was subsequently normalised to the no compound control. Data were plotted and fitted, and the concentrations resulting in 50% inhibition (IC50) were calculated using the non-linear regression curve fitting model using GraphPad (Prism). IC50 values for the inhibitors of the invention are compiled in Tables 1 and 3 and represent the average of at least two duplicate experiments.
row,SMILES,IC50
1,"COC[C@H](CC(F)(F)F)C(=O)N1CCC(Cn2cnc(-c3ccccc3)cc2=O)C2(CCCC2)C1 (stereo partly drawn) [Example 7, 6-Phenyl-3-((7-((S)-4,4,4-trifluoro-2-(methoxymethyl)butanoyl)-7-azaspiro[4.5]decan-10-yl)methyl)pyrimidin-4(3H)-one]",1000 to 20000 nM
2,"O=C(N1CCC(Cn2cnc(-c3ccccc3)cc2=O)C2(CCCC2)C1)N1CCC[C@H]1c1ccccc1 (stereo partly drawn) [Example 8, 6-Phenyl-3-((7-((S)-2-phenylpyrrolidine-1-carbonyl)-7-azaspiro[4.5]decan-10-yl)methyl)pyrimidin-4(3H)-one]",100 to 1000 nM
3,"N[C@@H]1CCN(C(=O)N2CCC(Cn3cnc(-c4ccccc4)cc3=O)CC2)[C@H](c2ccccc2)C1 [Example 9, 3-((1-((2S,4R)-4-Amino-2-phenylpiperidine-1-carbonyl)piperidin-4-yl)methyl)-6-phenylpyrimidin-4(3H)-one]",10 to 100 nM
4,"O=C(NCc1ccccc1)N1CCC(Cn2cnc(-c3ccccc3)cc2=O)C2(CCCC2)C1 (centres unmarked) [Example 10, N-Benzyl-10-((6-oxo-4-phenylpyrimidin-1(6H)-yl)methyl)-7-azaspiro[4.5]decane-7-carboxamide]",100 to 1000 nM
5,"O=C(N1CCC(Cn2cnc(-c3ccccc3)cc2=O)C2(CCCC2)C1)N1CCNC[C@H]1c1cc(F)cc(F)c1 (stereo partly drawn) [Example 11, 3-((7-((R)-2-(3,5-Difluorophenyl)piperazine-1-carbonyl)-7-azaspiro[4.5]decan-10-yl)methyl)-6-phenylpyrimidin-4(3H)-one]",< 10 nM
6,"N[C@@H]1CCN(C(=O)N2CCC(Cn3ccc(-c4ccccc4)cc3=O)CC2)[C@H](c2ccccc2)C1 [Example 17, 1-((1-((2S,4R)-4-Amino-2-phenylpiperidine-1-carbonyl)piperidin-4-yl)methyl)-4-phenylpyridin-2(1H)-one]",10 to 100 nM
7,"CC1(C)CN(C(=O)N2CCNC[C@H]2c2ccccc2)CCC1Cn1cnc(-c2ccccc2)cc1=O (stereo partly drawn) [Example 18, 3-((33-Dimethyl-1-((R)-2-phenylpiperazine-1-carbonyl)piperidin-4-yl)methyl)-6-phenylpyrimidin-4(3H)-one]",10 to 100 nM
8,"CC1(C)CN(C(=O)N2CC[C@@H](N)C[C@H]2c2ccccc2)CCC1Cn1cnc(-c2ccccc2)cc1=O (stereo partly drawn) [Example 19, 3-((1-((2S,4R)-4-Amino-2-phenylpiperidine-1-carbonyl)-3,3-dimethylpiperidin-4-yl)methyl)-6-phenylpyrimidin-4(3H)-one]",< 10 nM
9,"CC1(C)CN(C(=O)N2CCNC[C@H]2c2ccccc2)CCC1Cn1ccc(-c2ccccc2)cc1=O (stereo partly drawn) [Example 20, 1-((3,3-Dimethyl-1-((R)-2-phenylpiperazine-1-carbonyl)piperidin-4-yl)methyl)-4-phenylpyridin-2(1H)-one]",10 to 100 nM
10,"CC1(C)CN(C(=O)N2CC[C@@H](N)C[C@H]2c2ccccc2)CCC1Cn1ccc(-c2ccccc2)cc1=O (stereo partly drawn) [Example 21, 1-((1-((2S,4R)-4-Amino-2-phenylpiperidine-1-carbonyl)-3,3-dimethylpiperidin-4-yl)methyl)-4-phenylpyridin-2(1H)-one]",< 10 nM
11,"O=C(N1CCC(Cn2ccc(-c3ccccc3)cc2=O)CC1)N1CCNC[C@H]1c1cc(F)ccc1F [Example 22, (R)-1-((1-(2-(2,5-Difluorophenyl)piperazine-1-carbonyl)piperidin-4-yl)methyl)-4-phenylpyridin-2(1H)-one]",10 to 100 nM
12,"N[C@@H]1CCN(C(=O)N2CC[C@@H](Cn3ccc(-c4ccccc4)cc3=O)C3(CCCC3)C2)[C@H](c2ccccc2)C1 [Example 23, 1-(((R)-7-((2S,4R)-4-Amino-2-phenylpiperidine-1-carbonyl)-7-azaspiro[4.5]decan-10-yl)methyl)-4-phenylpyridin-2(1H)-one]",< 10 nM
13,"N[C@@H]1CCN(C(=O)N2CC[C@H](Cn3ccc(-c4ccccc4)cc3=O)C3(CCCC3)C2)[C@H](c2ccccc2)C1 [Example 24, 1-(((S)-7-((2S,4R)-4-Amino-2-phenylpiperidine-1-carbonyl)-7-azaspiro[4.5]decan-10-yl)methyl)-4-phenylpyridin-2(1H)-one]",1000 to 20000 nM
14,N[C@@H]1CCN(C(=O)N2CC[C@@H](Cn3cnc(-c4ccccc4)cc3=O)C3(CCCC3)C2)[C@H](c2ccccc2)C1 [Example 25],< 10 nM
15,N[C@@H]1CCN(C(=O)N2CC[C@H](Cn3cnc(-c4ccccc4)cc3=O)C3(CCCC3)C2)[C@H](c2ccccc2)C1 [Example 26],100 to 1000 nM
16,"N[C@@H]1CCN(C(=O)N2CCC(Cn3cnc4ccc(F)cc4c3=O)C3(CCCC3)C2)[C@H](c2ccccc2)C1 (stereo partly drawn) [Example 27, 3-((7-((2S,4R)-4-Amino-2-phenylpiperidine-1-carbonyl)-7-azaspiro[4.5]decan-10-yl)methyl)-6-fluoroquinazolin-4(3H)-one]",< 10 nM
17,"N[C@@H]1CCN(C(=O)N2CCC(Cn3cnc(C(F)F)cc3=O)C3(CCCC3)C2)[C@H](c2ccccc2)C1 (stereo partly drawn) [Example 28, 3-((7-((2S,4R)-4-Amino-2-phenylpiperidine-1-carbonyl)-7-azaspiro[4.5]decan-10-yl)methyl)-6-(difluoromethyl) pyrimidin-4(3H)-one]",10 to 100 nM
18,"N[C@@H]1CCN(C(=O)N2CCC(Cn3cnc(C4CC4)cc3=O)C3(CCCC3)C2)[C@H](c2ccccc2)C1 (stereo partly drawn) [Example 29, 3-((7-((2S,4R)-4-Amino-2-phenylpiperidine-1-carbonyl)-7-azaspiro[4.5]decan-10-yl)methyl)-6-cyclopropyl-pyrimidin-4(3H)-one]",< 10 nM
19,"N[C@@H]1CCN(C(=O)N2CCC(Cn3cnccc3=O)C3(CCCC3)C2)[C@H](c2ccccc2)C1 (stereo partly drawn) [Example 30, 3-((7-((2S,4R)-4-Amino-2-phenylpiperidine-1-carbonyl)-7-azaspiro[4.5]decan-10-yl)methyl) pyrimidin-4(3H)-one]",100 to 1000 nM
20,"N[C@@H]1CCN(C(=O)N2CCC(Cn3ccncc3=O)C3(CCCC3)C2)[C@H](c2ccccc2)C1 (stereo partly drawn) [Example 31, 1-((7-((2S,4R)-4-Amino-2-phenylpiperidine-1-carbonyl)-7-azaspiro[4.5]decan-10-yl)methyl)pyrazin-2(1H)-one]",10 to 100 nM
21,"Cc1cc(=O)n(CC2CCN(C(=O)N3CC[C@@H](N)C[C@H]3c3ccccc3)CC23CCCC3)cn1 (stereo partly drawn) [Example 32, 3-((7-((2S,4R)-4-Amino-2-phenylpiperidine-1-carbonyl)-7-azaspiro[4.5]decan-10-yl)methyl)-6-methylpyrimidin-4(3H)-one]",10 to 100 nM
22,"N[C@@H]1CCN(C(=O)N2CCC(Cn3ccc4ccncc4c3=O)C3(CCCC3)C2)[C@H](c2ccccc2)C1 (stereo partly drawn) [Example 33, 2-((7-((2S,4R)-4-Amino-2-phenylpiperidine-1-carbonyl)-7-azaspiro[4.5]decan-10-yl)methyl)-2,7-naphthyridin-1(2H)-one]",10 to 100 nM
23,"N[C@@H]1CCN(C(=O)N2CCC(Cn3cnc(C(F)(F)F)cc3=O)C3(CCCC3)C2)[C@H](c2ccccc2)C1 (stereo partly drawn) [Example 34, 3-((7-((2S,4R)-4-Amino-2-phenylpiperidine-1-carbonyl)-7-azaspiro[4.5]decan-10-yl)methyl)-6-(trifluoromethyl) pyrimidin-4(3H)-one]",10 to 100 nM
